The text below walks through data of patent US20230072683A1, “PYRIDO-PYRIMIDIN DERIVATIVES AND PHARMACEUTICAL COMPOSITION, FOR USE IN PREVENTING OR TREATING PI3 KINASE RELATED DISEASES, COMPRISING SAME AS ACTIVE INGREDIENT” (BORYUNG PHARMACEUTICAL CO., LTD, priority 2019, published 2023).

The target in experiment [1] is PI3K-δ (PI3K(p1108/p857) (h)) (Homo sapiens, UniProt O00329). Briefly: Evaluation of inhibitory activity against PI3K-δ (HTRF kinase assay). Format: biochemical. The conditions noted are these: for inhibition at 0.1 µM: compound at 0.1 μM, read-out: EXP_VALUE(% Inhibition) PI3K-δ 0.1 μM. The method, boiled down: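 HTRF read-out (665/620 nm ratio ×10000) used Eu-labelled anti-GST, GST-tagged GRP1 PH domain and streptavidin-allophycocyanin after EDTA/PIP3 stop.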
Chain of PI3K-δ (PI3K(p1108/p857) (h)) (O00329 whole entry, the tested form may be a part): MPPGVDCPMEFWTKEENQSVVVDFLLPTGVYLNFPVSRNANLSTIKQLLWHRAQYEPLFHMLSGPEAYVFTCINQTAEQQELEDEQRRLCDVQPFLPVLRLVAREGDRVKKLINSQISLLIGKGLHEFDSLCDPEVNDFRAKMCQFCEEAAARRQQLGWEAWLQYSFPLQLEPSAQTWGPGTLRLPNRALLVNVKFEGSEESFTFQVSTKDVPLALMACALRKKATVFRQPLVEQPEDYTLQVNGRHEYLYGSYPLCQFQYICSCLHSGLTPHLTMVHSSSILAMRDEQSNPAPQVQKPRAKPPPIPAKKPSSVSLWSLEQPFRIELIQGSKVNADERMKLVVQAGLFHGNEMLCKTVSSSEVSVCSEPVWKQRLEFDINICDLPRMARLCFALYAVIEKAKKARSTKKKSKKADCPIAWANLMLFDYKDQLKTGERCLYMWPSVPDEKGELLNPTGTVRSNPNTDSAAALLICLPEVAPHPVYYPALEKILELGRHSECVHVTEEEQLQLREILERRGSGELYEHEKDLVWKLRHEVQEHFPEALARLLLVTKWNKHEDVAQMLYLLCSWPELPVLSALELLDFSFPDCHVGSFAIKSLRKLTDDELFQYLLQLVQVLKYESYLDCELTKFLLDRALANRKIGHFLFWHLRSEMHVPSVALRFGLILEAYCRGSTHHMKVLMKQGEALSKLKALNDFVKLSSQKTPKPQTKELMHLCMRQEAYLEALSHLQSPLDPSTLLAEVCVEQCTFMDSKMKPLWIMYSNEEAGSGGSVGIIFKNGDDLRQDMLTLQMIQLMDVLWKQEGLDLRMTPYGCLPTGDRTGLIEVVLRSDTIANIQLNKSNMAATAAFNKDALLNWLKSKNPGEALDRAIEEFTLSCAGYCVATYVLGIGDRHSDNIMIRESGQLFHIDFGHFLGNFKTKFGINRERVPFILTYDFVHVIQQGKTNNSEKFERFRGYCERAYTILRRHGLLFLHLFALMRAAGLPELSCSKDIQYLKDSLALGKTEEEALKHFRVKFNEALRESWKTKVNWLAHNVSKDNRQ
Chain of PI3K-δ (PI3K(p1108/p857) (h)) (P27986 whole entry partner, the tested form may be a part): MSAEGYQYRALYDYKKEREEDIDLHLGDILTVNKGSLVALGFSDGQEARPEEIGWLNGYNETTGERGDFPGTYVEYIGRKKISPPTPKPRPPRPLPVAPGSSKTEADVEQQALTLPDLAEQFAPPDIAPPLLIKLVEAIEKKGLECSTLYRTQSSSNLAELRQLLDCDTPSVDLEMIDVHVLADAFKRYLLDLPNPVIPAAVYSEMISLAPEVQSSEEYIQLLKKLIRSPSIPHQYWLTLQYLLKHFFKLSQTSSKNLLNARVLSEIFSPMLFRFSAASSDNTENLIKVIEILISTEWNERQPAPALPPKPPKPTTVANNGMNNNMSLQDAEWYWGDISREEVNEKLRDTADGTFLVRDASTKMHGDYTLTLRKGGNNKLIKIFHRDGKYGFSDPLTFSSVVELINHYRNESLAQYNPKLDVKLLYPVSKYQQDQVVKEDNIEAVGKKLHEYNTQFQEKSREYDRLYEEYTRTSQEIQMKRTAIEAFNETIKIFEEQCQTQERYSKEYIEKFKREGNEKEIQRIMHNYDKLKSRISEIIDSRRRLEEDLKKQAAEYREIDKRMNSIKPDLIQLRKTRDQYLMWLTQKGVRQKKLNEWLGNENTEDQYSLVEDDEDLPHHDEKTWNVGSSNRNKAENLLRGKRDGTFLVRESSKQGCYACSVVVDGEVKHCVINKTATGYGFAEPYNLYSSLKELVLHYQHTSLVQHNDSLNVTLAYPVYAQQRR
For orientation: In TR-FRET formats the signal depends on donor and acceptor labels being close together.

The target in experiment [2] is DNA-PK(h) (Homo sapiens, UniProt P78527). The experiment can be described thus: Evaluation of inhibitory activity against DNA-PK (HTRF kinase assay, GST-cMyc-p53 substrate). In kind it is biochemical. The note with it: for inhibition at 0.1 µM: compound at 0.1 μM, read-out: EXP_VALUE(% Inhibition) DNA-PK(h) 0.1 μM. The method, boiled down:
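p53 Ser15 phosphorylation by human DNA-PK was measured by time-resolved FRET ratio (665/620 nm ×10000) using Eu-labelled anti-phospho-Ser15 and d2 anti-GST antibodies. Substrate GST-cMyc-p53 at 50 μM; Mg/ATP-initiated, 30 min at room temperature, EDTA stop.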

The inhibition is the share of the control response that was lost under treatment.

Consider `C[C@H](Nc1ncnc2[nH]ccc(=O)c12)c1c(Cl)c2cccc(Oc3cccnc3)c2c(=O)n1-c1ccccc1` [Example 437, (S)-4-((1-(4-chloro-1-oxo-2-phenyl-8-(pyridin-3-yloxy)-1,2-dihydroisoquinolin-3-yl)ethyl)amino)pyrido[2,3-d]pyrimidin-5(8H)-one], for which the results for the inhibition at 0.1 µM in experiment [1] and in experiment [2] were 33% and 53%, respectively.

For the compound `C[C@H](Nc1ncnc2[nH]ccc(=O)c12)c1c(Cl)c2cccc(-c3cnc(C4(O)CCC4)nc3)c2c(=O)n1-c1ccccc1` [Example 438, (S)-4-((1-(4-chloro-8-(2-(1-hydroxycyclobutyl)pyrimidin-5-yl)-1-oxo-2-phenyl-1,2-dihydroisoquinolin-3-yl)ethyl)amino)pyrido[2,3-d]pyrimidin-5(8H)-one], the values for the inhibition at 0.1 µM in experiment [1] and in experiment [2] were 87% and 64%, respectively.

Consider `C[C@H](Nc1ncnc2[nH]ccc(=O)c12)c1c(Cl)c2cccc(C(=O)NCc3ccncc3)c2c(=O)n1-c1ccccc1` [Example 439, (S)-4-chloro-1-oxo-3-(1-((5-oxo-5,8-dihydropyrido[2,3-d]pyrimidin-4-yl)amino)ethyl)-2-phenyl-N-(pyridin-4-ylmethyl)-1,2-dihydroisoquinoline-8-carboxamide], for which the inhibition at 0.1 µM turned out to be 92% in experiment [1] and 16% in experiment [2].

Take `C[C@H](Nc1ncnc2[nH]ccc(=O)c12)c1c(Cl)c2cccc(C(=O)Nc3ccccc3)c2c(=O)n1-c1ccccc1` [Example 440, (S)-4-chloro-1-oxo-3-(1-((5-oxo-5,8-dihydropyrido[2,3-d]pyrimidin-4-yl)amino)ethyl)-N, 2-diphenyl-1,2-dihydroisoquinoline-8-carboxamide]: the inhibition at 0.1 µM was 92% in experiment [1] and 16% in experiment [2].

In the case of `C[C@H](O)c1cccc2c(Cl)c([C@H](C)Nc3ncnc4[nH]ccc(=O)c34)n(-c3ccccc3)c(=O)c12` [Example 441, 4-(((S)-1-(4-chloro-8-((S)-1-hydroxyethyl)-1-oxo-2-phenyl-1,2-dihydroisoquinolin-3-yl)ethyl)amino)pyrido[2,3-d]pyrimidin-5(8H)-one], the inhibition at 0.01 µM in experiment [1] (compound at 0.01 μM, read-out: EXP_VALUE(% Inhibition) PI3K-δ 0.01 μM) worked out at 54%; in experiment [2] (compound at 0.01 μM, read-out: EXP_VALUE(% Inhibition) DNA-PK(h) 0.01 μM), 35%.
